Measurements: patent US12345644B2, “System and method for assessing cellular metabolic activity” (Trustees of Tufts College, priority 2016, dated 2025)

System: HL-1 cardiomyocytes
Conditions: HL-1 cells, CCCP 50 μM, imaged right after exposure, versus vehicle control, n=4 cultures/group
Protocol: Mouse HL-1 cardiomyocytes are maintained in Claycomb media (Sigma-Alrich). Images are taken right after exposure to low-dose CCCP (50 μM) or vehicle. We prepared 4 dishes for each group, and acquired a total of 16 fields per group (4 fields per dish).
TPEF Data Acquisition: For TPEF imaging, cell cultures are placed in home-made micro-incubator system, which maintained 37° C. and 5% CO2 within a humidified environment throughout the imaging session. […] Images are obtained using a custom-built microscope with a 40×water dipping objective (NA 1.1) or a 25×water dipping objective (NA 0.95, for in vivo imaging only) equipped with a tunable (710-920 nm) Ti: sapphire laser (Mai Tai; Spectra Physics; Mountain View, Calif.). Emission events are registered by a photomultiplier tube (PMT) detector attached to a commercial time-correlated single photon counting (TCSPC) electronics module. To isolate NADH fluorescence, a 460(±20) nm emission filter (Chroma, ET460/40M-2P), corresponding to the NADH emission peak, was placed before the detector. NADH fluorescence images are acquired from this 460 nm detector using 755 nm excitation. FAD fluorescence was isolated using 525(±25) nm emission filter (Chroma, ET525/50M-2P) and 860 nm excitation. […] The laser power and PMT gain are recorded for each image and used to normalize fluorescence intensity.
Optical Redox Ratio Calculation: To process the optical redox ratio, firstly the fluorescence intensity of either NADH or FAD at each pixel was taken as the total photon counts detected during the integration time without spatial binning. For cell cultures, the cytoplasm of cells was selected based on the intensity threshold (FIG. 2F), while the segmentation of cell cytoplasm and lipid areas for BAT tissues was extracted by a combination of fluorescence intensity and lifetime information (FIGS. 71-7F). Pixel-wise redox ratio maps are created by normalized fluorescence intensities as: FAD/(FAD+NADH). […]

carbonyl cyanide m-chlorophenyl hydrazine [CCCP]
bound NADH fraction (NADH fluorescence lifetime, phasor analysis): increase
mitochondrial clustering (β from PSD): increased
optical redox ratio FAD/(NADH+FAD): elevated
